Measurements reported in PMC10385664, “Projection of Target Drug Particle Size in Oral Formulations Using the Refined Developability Classification System (rDCS)” (Pharmaceutics, 2023).
≈ marks a conversion by molar mass, not a printed value. Read-outs that look alike come from different tables or passages of the source.

Tests used:
[1] = Shake-flask n-octanol/water logDpH7.4 with HPLC-UV; format: physicochemical; settings: octanol / 0.01 M phosphate buffer pH 7.4, 25 °C
Protocol: LogDpH7.4 values of the three APIs were determined at Pion Inc (UK) Ltd. (Forest Row, UK) using a shake-flask screening method and high performance liquid chromatography with UV detection (HPLC-UV). Samples containing the API were equilibrated between octanol-saturated 0.01 M phosphate buffer at pH 7.4 and buffer-saturated octanol and analyzed by HPLC-UV. The experimental details are provided in Supplementary Materials. Measured logDpH7.4 values are presented as means (±SD) and were compared to literature values as well as in silico predictions using the software ADMET Predictor version 9 and ACD/Labs Release 2021.1.2. […]
version 9 (Simulations Plus Inc., Lancaster, CA, USA) and ACD/ Labs Release 2021.1.2 (Advanced Chemistry Devel opment Inc., Toronto, Canada) with the molecular structure as input.
S.2.3. n‐Octanol/Water Distribution Coefficient (logDpH7.4) […]
screening method and HPLC analysis. Samples (n = 3) were prepared by addition of a 10 mM API stock solution in DMSO to an oct anol saturated 0.01 M phosphate buffer at pH 7.4 to prepare a 1:10 dilution (ionic strength adjusted with 0.15 M NaCl). Buffer saturated octanol was added (1:1) to prepare pa rtiti on systems, which were agitated on an electronic shake pla te for 4 h at 25 ± 2°C. All samples were centrifuged, and aqueous and octanol layers were separately transferred to 96 well plat es. Both layers of each replicate were analyzed with a standard HPLC gradient method (Table S3). A Waters Acquity H‐Class Plus System consisting of a sample manager, a quaternary solvent manager and a photodiode array (PDA) detector was used. All HPLC data was collected and processed using the software Empower® version 3.0. Measured logDpH7.4 values are presented as means with standard deviation and were compared to literature va lu es and predictions using the software ADMET Predictor version 9 and ACD/Labs Release 2021.1.2 wit h the molecular structure as input.
Table S3. Standard HP LC method for the determination of logDpH7.4 values.
System Waters Acquity H‐Class Plus System […]

[2] = Shake-flask equilibrium solubility in FaSSIF V1; format: physicochemical; settings: for solubility thermodynamic at 24 h: pH 6.5, thermodynamic from solid, FaSSIF V1, pH 6.50 ± 0.05, 37 °C, read-out: CS FaSSIF V1 (thermodynamic solubility)
Protocol: Equilibrium solubilities of the three APIs in FaSSIF V1 were measured with the shake-flask method, following the ICH M9 guideline on BCS-based biowaivers. Briefly, an excess amount of each API was weighed into a 5 mL vial and the assay medium (FaSSIF V1) was added. The resulting suspensions were incubated at 37.0 ± 0.5 °C (Memmert Incubator IN750, Memmert GmbH + Co. KG, Schwabach, Germany) and agitated for 24 h at 25 rpm (LABINCO LD76 Digital Rotary Mixer, Labinco BV, Breda, The Netherlands). At 2, 4, 6 and 24 h, samples were drawn and filtered through Acrodisc 13 mm with 0.45 µm PTFE filters (Pall Corporation, Port Washington, NY, USA) after establishing that adsorption of the APIs onto the filters was less than 5%. Before sampling, the suspensions were checked visually for the presence of solid particles and the pH was measured (Metrohm 780 pH Meter, Metrohm AG, Herisau, Switzerland). All measured pH values were within the specified range of pH 6.50 ± 0.05, so no pH adjustment was necessary. The filtrates were diluted with a 1:1 mixture of ACN and Milli-Q water for analysis using ultra-performance liquid chromatography with UV detection (UPLC-UV).
XRPD patterns of the residual solids were compared to the starting material and literature profiles. A differential scanning calorimetry (DSC) analysis of the input materials was additionally performed. Istradefylline samples were protected from light in all studies using amber vials and aluminum foil to prevent photolysis. The experimental details of the UPLC-UV methods and solid state analyses can be found in Supplementary Materials.
The solubility experiments were performed in triplicate (n = 3) and solubilities are presented as means (± SD). The mean values were used as input for the rDCS and rtarget calculations.
S.2.4. rDCS Standard Investigations: Solubility Studies
Samples from the solubility studies were analyzed with UPLC‐UV analysis. For voriconazole and lemborexant a Waters Acquity UPLC System consisting of a sample manager, a binary solvent manager, and a PDA detector was used (Waters Corporation, Milford, USA). For istradefylline a Waters Acquity UPLC H‐Class System consisting of a sample manager, a quarternary solvent manager, and a PDA detector was used (Waters Corporation, Milford, MA , USA). The chromatograms were recorded and processed using the software Empower® version 3.0. Representative chromatograms for each API are shown in […]
the FaSSIF V1 solubility study were collected and examined using X‐ray powder diffraction (XRPD) analysis to detect solution‐mediated solid state changes. After 24 h, 1 to 5 mg of the residual solid was collected, pl aced on a zero‐background holder and allowed to sit at room temperature for 2 h. […]

[3] = cited from earlier work
[4] = cited from earlier work; remark: listed apart in the source
[5] = healthy male subjects, oral suspension 40 mg [14C]istradefylline
[6] = human mass-balance study, 10 mg [14C]lemborexant

In the case of `CCn1c(=O)c2c(nc(/C=C/c3ccc(OC)c(OC)c3)n2C)n(CC)c1=O` [Istradefylline, istradefylline], the logD at 4 h [1] is given as 2.96 ± 0.03, the solubility thermodynamic at 24 h [2] is given as 3.59 ± 0.05 µg/mL (≈ 9.34 µM) and the “Literature pKa” value ([3]; basic pKa, method not disclosed) is given as 0.78 ^3 [31, 34]. For the same compound, the “administered radioactivity recovered in feces” value [4, 5] was 48.0 ± 13.4% and the “administered radioactivity recovered in urine” value [4, 5] was 38.9 ± 10.7%.

For `Cc1ncc(OC[C@@]2(c3cccc(F)c3)C[C@H]2C(=O)Nc2ccc(F)cn2)c(C)n1` [Lemborexant, lemborexant], the logD at 4 h [1] is given as 3.04 ± 0.05, the solubility thermodynamic at 24 h [2] is given as 23.3 ± 0.1 µg/mL (≈ 56.8 µM) and the “Literature pKa” value ([3]; estimated by capillary electrophoresis) is given as <3.50 [33]. For the same compound, the median tmax ([4]; healthy adults, single oral doses 1 to 10 mg) was “approximately 1 h”, the “dose recovered unchanged in feces” value [4, 6] was “about 13%” and the “fraction of oral dose absorbed (Fa)” value [4, 6] was 87%. The exposure versus dose ([4]; range 1 to 10 mg) was “increase in a dose-proportional manner”.

In the case of `C[C@@H](c1ncncc1F)[C@](O)(Cn1cncn1)c1ccc(F)cc1F` [Voriconazole, voriconazole], the logD at 4 h [1] is reported as 1.66 ± 0.03, the solubility thermodynamic at 24 h [2] is reported as 827 ± 6 µg/mL (≈ 2370 µM) and the solubility at 24 h ([2]; pH 6.5, Excel template input, FaSSIF V1, read-out: Estimate of intestinal solubility (CS)) is reported as 827 µg/mL (≈ 2370 µM). The “Literature pKa” value ([3]; basic pKa, triazole moiety, method not disclosed) was 1.76 ^3 [32], the oral bioavailability ([4]; healthy volunteers, 200 mg or 400 mg oral) was at least 85% and the “exposure (AUC and Cmax) versus dose” value ([4]; high single oral doses of 800, 1200 and 1600 mg) was “increased proportionally with dose”.
